Results on 2 compounds are retold here after US7927613B2, “Pharmaceutical co-crystal compositions” (University of South Florida, priority 2002, dated 2011).

The term melting point denotes the temperature of the solid-liquid transition.

A short description of series [1]: Dissolution profile. It is filed as physicochemical. To be noted: vs. itraconazole free base (FIG. 28). From the text:
In another aspect of the present invention, the dissolution profile of the API is modulated whereby the aqueous dissolution rate or the dissolution rate in simulated gastric fluid or in simulated intestinal fluid, or in a solvent or plurality of solvents is increased. Dissolution rate is the rate at which API solids dissolve in a dissolution medium. For APIs whose absorption rates are faster than the dissolution rates (e.g., steroids), the rate-limiting step in the absorption process is often the dissolution rate. Because of a limited residence time at the absorption site, APIs that are not dissolved before they are removed from intestinal absorption site are considered useless. Therefore, the rate of dissolution has a major impact on the performance of APIs that are poorly soluble. Because of this factor, the dissolution rate of APIs in solid dosage forms is an important, routine, quality control parameter used in the API manufacturing process. […] For rapid API absorption, Cs−C is approximately equal to Cs The dissolution rate of APIs may be measured by conventional means known in the art. […] Conditions under which the dissolution rate is measured is the same as discussed above The increase in dissolution may be further specified by the time the composition remains supersaturated before reaching equilibrium solubility.

With `CCOc1ccc(NC(N)=O)cc1` [4-ethoxyphenyl urea], the melting point fell in the range of 173 to 174 °C.

For “itraconazole and malic acid [itraconazole:malic acid]”, the dissolution profile result in series [1] was “modulated dissolution profile”.
